Like-named read-outs stand apart in the source and are kept apart here.
Key:
[1] = system: experimental asthma in rats; assay: Inhibition of experimental asthma in rats; type: in vivo, Wistar rats; conditions: Rattus norvegicus, po; for inhibition in vivo at 1 mg/kg: other dosage/kg: 1 mg; for inhibition in vivo at 0.1 mg/kg: other dosage/kg: 0.1 mg; for inhibition in vivo at 0.3 mg/kg: other dosage/kg: 0.3 mg
Experimental: (§1) Antiserum was prepared according to the method described in J. Immunol., 106, 1002 (1971). The titer (or highest effective dilution which gave a mean 48 hours PCA response of 5 mm in diameter in a rat) of the antiserum used was 1:200.
Wistar rats were passively sensitized by injection into caudal vein of 2.0ml/animal antiserum. After 24 hours, anaphylactic airway contraction caused by administration of antigen was measured by a modified Konzett and Roessler method. Briefly, the animal was fixed at dorsal position under urethane (1.5 g/kg, i.p.) anesthetization and connected with a respirator (Harvard Model 683, respiratory volume: 3-5 ml/respiration; respiratory rate: 72/minute) via an incised tracheal cannula. […] Oxatomide was administered two hours before the test, which is the optimal conditions according to Nippon Yakurigaku Zasshi (Japanese Journal of Pharmacology), 80, 261 (1982), and the other test drugs were orally administered at a rate of 0.2 ml/100 g body weight one hour before the test using a gastric tube. At the end of measurement, the trachea was blocked with a Kocher clamp and the measured values were expressed in percent taking the value at blockage as the maximum contraction (100%).

[2] = system: passive cutaneous anaphylaxis (PCA) reaction in rats; assay: Inhibition of PCA reaction in rats; type: in vivo, Wistar rats; conditions: Rattus norvegicus, po; for inhibition in vivo at 3 mg/kg / inhibition in vivo at 10 mg/kg: read-out: Inhibition of PCA in rat
Experimental: as §1
Wistar rats were passively sensitized by intracutaneous injection of 0.05 ml antiserum diluted 75 times with physiological saline at two sheared sites of dorsal skin. After 48 hours, 0.5ml/animal of 1% Evans blue-physiological saline containing 2mg ovalbumin was administered into caudal vein to elicit the reaction. After 30 minutes, rats were sacrificed by decapitative bleeding and the dorsal skin was flayed. Dye stuff exuded at the reaction site was extracted according to the method described in Microbiol. Immunol., 22, 89 (1978). Briefly, two circular pieces of sensitized areas and one circular piece of unsensitized area (as the control) were punched at 1.8 cm diameter. The disks were placed in test tubes and treated overnight with 1 ml 1N-KOH at 37° C. Then 9ml 0.6N-H3 PO4 /acetone (5/13) was added and the mixture was thoroughly stirred and centrifuged (3000 rpm, 10 minutes). The supernatant was assayed for absorption at 620 nm. The amount of dye stuff was calculated from the standard curve previously prepared with known amounts of Evance blue. The conditions of sensitization and the amount of antigen were based on Nippon Yakurigaku Zasshi (Japanese Journal of Pharmacology),80, 261 (1982).
Test drugs and Oxatomide as a positive control were administered orally before 1 hour of elicitation through a gastric tube at 1 ml/200g body weight. In the test, groups of 6 to 7 animals and groups of 8 to 9 animals were used for test drugs and control, respectively.

[3] = read-out: Inhibition of Experimental Asthma in rat
[4] = 10 mg/kg, read-out: Inhibition of Experimental Asthma in rat

O=c1cc(CN2CCC(c3c[nH]c4ccccc34)CC2)c2ccccc2[nH]1 [III-1, 4-[[4-(1H-indol-3-yl)-l-piperidinyl]methyl]-2(1H)-quinolinone]
inhibition in vivo at 10 mg/kg [1, 3]: 14.6%
inhibition in vivo at 30 mg/kg [1, 3]: 14.3%
inhibition in vivo at 3 mg/kg [2]: 58.8%
inhibition in vivo at 10 mg/kg [2]: 73.1%

O=c1cc(CCCN2CCC(c3c[nH]c4ccccc34)CC2)c2ccccc2[nH]1 [III-3, 4-[3-[4-(1H-indol-3-yl)-1-piperidinyl]propyl]-2(1H)-quinolinone]
inhibition in vivo at 10 mg/kg [1, 4]: 85%
inhibition in vivo at 1 mg/kg [1]: 25.4%
inhibition in vivo at 3 mg/kg ([1]; other dosage/kg: 3 mg): 88.7%
inhibition in vivo at 10 mg/kg ([2]; 10 mg/kg): 69.1%
inhibition in vivo at 1 mg/kg ([2]; other dosage/kg: 1 mg): 21.3%
inhibition in vivo at 3 mg/kg ([2]; other dosage/kg: 3 mg): 25.8%
inhibition in vivo at 30 mg/kg ([2]; other dosage/kg: 30 mg): 96.1%

O=c1cc(CCCCN2CCC(c3c[nH]c4ccccc34)CC2)c2ccccc2[nH]1 [III-4, 4-[4-[4-(1H-indol-3-yl)-1-piperidinyl]butyl]-2(1H)-quinolinone]
inhibition in vivo at 10 mg/kg [1, 4]: 28.7%
inhibition in vivo at 10 mg/kg ([2]; 10 mg/kg): 12.8%

O=c1cc(CCCCCN2CCC(c3c[nH]c4ccccc34)CC2)c2ccccc2[nH]1 [III-5, 4-[5-[4-(1H-indol-3-yl)-1-piperidinyl]pentyl]-2(1H)-quinolinone]
inhibition in vivo at 10 mg/kg [1, 4]: 8.87%
inhibition in vivo at 10 mg/kg ([2]; 10 mg/kg): 66.5%

O=c1cc(CN2CCN(C(c3ccccc3)c3ccccc3)CC2)c2ccccc2[nH]1 [III-6, 4-[[4-(diphenylmethyl)-1-piperazinyl]methyl]-2(1H)-quinolinone]
inhibition in vivo at 10 mg/kg [1, 4]: 57.2%
inhibition in vivo at 10 mg/kg ([2]; 10 mg/kg): 9.7%

O=c1cc(CCN2CCN(C(c3ccccc3)c3ccccc3)CC2)c2ccccc2[nH]1 [III-7, 4-[2-[4-(diphenylmethyl)-1-piperazinyl]ethyl]-2(1H)-quinolinone]
inhibition in vivo at 10 mg/kg [1, 4]: 63.6%
inhibition in vivo at 10 mg/kg ([2]; 10 mg/kg): 57.8%

O=c1cc(CCCN2CCN(C(c3ccccc3)c3ccccc3)CC2)c2ccccc2[nH]1 [III-8, 4-[3-[4-(diphenylmethyl)-1-piperazinyl]propyl]-2(1H)-quinolinone]
inhibition in vivo at 10 mg/kg [1, 4]: 17.1%
inhibition in vivo at 10 mg/kg ([2]; 10 mg/kg): 73.9%

O=c1cc(CCN2CCN(C(c3ccccc3)c3ccc(Cl)cc3)CC2)c2ccccc2[nH]1 (centres unmarked) [III-9]
inhibition in vivo at 10 mg/kg [1, 4]: 34.6%
inhibition in vivo at 10 mg/kg ([2]; 10 mg/kg): 8.9%

O=c1cc(CCN2CCC(OC(c3ccccc3)c3ccccc3)CC2)c2ccccc2[nH]1 [III-11, 4-[2-[4-(diphenylmethoxy)-1-piperidinyl]ethyl]-2(1H)-quinolinone]
inhibition in vivo at 10 mg/kg [1, 4]: 35.6%
inhibition in vivo at 10 mg/kg ([2]; 10 mg/kg): 63.6%

O=c1cc(CCCN2CCC(OC(c3ccccc3)c3ccccc3)CC2)c2ccccc2[nH]1 [III-12, 4-[3-[4-(diphenylmethoxy)-1-piperidinyl]propyl]-2(1H)-quinolinone]
inhibition in vivo at 10 mg/kg [1, 4]: 12.1%
inhibition in vivo at 10 mg/kg ([2]; 10 mg/kg): 73.6%

O=C1Cc2ccccc2C(=C2CCN(Cc3cc(=O)[nH]c4ccccc34)CC2)c2ccsc21 [III-13, 4,9-dihydro-4-[1-[(1,2-dihydro-2-oxo-4-quinolyl)methyl]-4-piperidinylidene]-10H-benzo[4, 5]cyclohepta[1,2-b]thiophen-10-one]
inhibition in vivo at 10 mg/kg [1, 4]: 42.9%
inhibition in vivo at 10 mg/kg ([2]; 10 mg/kg): 24.2%

O=C1Cc2ccccc2C(=C2CCN(CCc3cc(=O)[nH]c4ccccc34)CC2)c2ccsc21 [III-14, 4,9-dihydro-4-[1-[2-(1,2-dihydro-2-oxo-4-quinolyl)ethyl]-4-piperidinylidene]-10H-benzo[4, 5]cyclohepta[1,2-b]thiophen-10-one]
inhibition in vivo at 10 mg/kg [1, 4]: 44.8%
inhibition in vivo at 10 mg/kg ([2]; 10 mg/kg): 23.1%

O=C1Cc2ccccc2C(=C2CCN(CCCc3cc(=O)[nH]c4ccccc34)CC2)c2ccsc21 [III-15, 4,9-dihydro-4-[1-[3-(1,2-dihydro-2-oxo-4-quinolyl)propyl]-4-piperidinylidene]-10H-benzo[4, 5]cyclohepta[1,2-b]thiophen-10-one]
inhibition in vivo at 10 mg/kg [1, 4]: 37.5%
inhibition in vivo at 10 mg/kg ([2]; 10 mg/kg): 49.9%

Cn1c(=O)cc(CN2CCC(c3c[nH]c4ccccc34)CC2)c2ccccc21 [III-16, 4-[[4-(1H-indol-3-yl)-l-piperidinyl]methyl]-1-methyl-2(1H)-quinolinone]
inhibition in vivo at 10 mg/kg [1, 3]: 2.57%
inhibition in vivo at 10 mg/kg [2]: 45.6%

Cn1c(=O)cc(CCN2CCC(c3c[nH]c4ccccc34)CC2)c2ccccc21 [III-17, 4-[2-[4-(1H-indol-3-yl)-1-piperidinyl]ethyl]-1-methyl-2(1H)-quinolinone]
inhibition in vivo at 10 mg/kg [1, 4]: 86.5%
inhibition in vivo at 0.1 mg/kg [1]: 96.2%
inhibition in vivo at 0.3 mg/kg [1]: 80.9%
inhibition in vivo at 1 mg/kg [1]: 88.1%
inhibition in vivo at 10 mg/kg ([2]; 10 mg/kg): 42.5%

O=c1cc(CCN2CCC(c3c[nH]c4ccccc34)CC2)c2ccc(Br)cc2[nH]1 [III-18, 7-bromo-4-[2-[4-(1H-indol-3-yl)-1-piperidinyl]ethyl]-2(1H)-quinolinone]
inhibition in vivo at 10 mg/kg [1, 4]: 84.2%
inhibition in vivo at 1 mg/kg [1]: 62.6%
inhibition in vivo at 10 mg/kg ([2]; 10 mg/kg): 45.2%

O=c1cc(CCN2CCC(c3c[nH]c4ccccc34)CC2)c2cc([N+](=O)[O-])ccc2[nH]1 [III-19, 4-[2-[4-(1H-indol-3-yl)-1-piperidinyl]ethyl]-6-nitro-2(1H)-quinolinone]
inhibition in vivo at 10 mg/kg [1, 4]: 88.5%
inhibition in vivo at 10 mg/kg ([2]; 10 mg/kg): 20.3%

Nc1ccc2[nH]c(=O)cc(CCN3CCC(c4c[nH]c5ccccc45)CC3)c2c1 [III-20, 6-amino-4-[2-[4-(1H-indol-3-yl)-1-piperidinyl]ethyl]-2(1H)-quinolinone]
inhibition in vivo at 10 mg/kg [1, 4]: 89.2%
inhibition in vivo at 10 mg/kg ([2]; 10 mg/kg): 18.5%

Cc1ccc2[nH]c(=O)cc(CCN3CCC(c4c[nH]c5ccccc45)CC3)c2c1 [III-23, 4-[2-[4-(1H-indol-3-yl)-1-piperidinyl]ethyl]-6-methyl-2(1H)-quinolinone]
inhibition in vivo at 10 mg/kg [1, 4]: 95.5%
inhibition in vivo at 0.1 mg/kg [1]: 48.5%
inhibition in vivo at 0.3 mg/kg [1]: 84%
inhibition in vivo at 1 mg/kg [1]: 95%
inhibition in vivo at 10 mg/kg ([2]; 10 mg/kg): 62%

Cc1cccc2c(CCN3CCC(c4c[nH]c5ccccc45)CC3)cc(=O)[nH]c12 [III-24, 4-[2-[4-(1H-indol-3-yl)-1-piperidinyl]ethyl]-8-methyl-2-(1H)-quinolinone]
inhibition in vivo at 10 mg/kg [1, 4]: 73.8%
inhibition in vivo at 1 mg/kg [1]: 95.7%
inhibition in vivo at 10 mg/kg ([2]; 10 mg/kg): 102%

Cc1ccc2c(CCN3CCC(c4c[nH]c5ccccc45)CC3)cc(=O)[nH]c2c1 [III-25, 4-[2-[4-(1H-indol-3-yl)-1-piperidinyl]ethyl]-7-methyl-2-(1H)-quinolinone]
inhibition in vivo at 10 mg/kg [1, 4]: 68.6%
inhibition in vivo at 10 mg/kg ([2]; 10 mg/kg): 29.4%

Cc1cc(C)c2c(CCN3CCC(c4c[nH]c5ccccc45)CC3)cc(=O)[nH]c2c1 [III-27, 5,7-dimethyl-4-[2-[4-(1H-indol-3-yl)-1-piperidinyl]ethyl]-2(1H)-quinolinone]
inhibition in vivo at 10 mg/kg [1, 4]: 65.8%
inhibition in vivo at 10 mg/kg ([2]; 10 mg/kg): 70.9%

O=C1CC(CCN2CCC(c3c[nH]c4ccccc34)CC2)c2ccccc2N1 (centres unmarked) [IV-1, 3,4-dihydro-4-[2-[4-(1H-indol-3-yl)-1-piperidinyl]ethyl]-2(1H)-quinolinone]
inhibition in vivo at 10 mg/kg [1, 4]: 80.1%
inhibition in vivo at 1 mg/kg [1]: 26.4%
inhibition in vivo at 10 mg/kg ([2]; 10 mg/kg): 95.9%
inhibition in vivo at 3 mg/kg ([2]; other dosage/kg: 3 mg): 65.9%

O=c1ccc2cc(Cl)ccc2n1CCCN1CCC(c2c[nH]c3ccccc23)CC1 [VII-1, 1-[3-[4-(1H-indol-3-yl)-piperidinyl]propyl]-6-chloro-2-(1H)-quinolinone]
inhibition in vivo at 10 mg/kg [1, 4]: 40.3%
inhibition in vivo at 10 mg/kg ([2]; 10 mg/kg): 12.1%

Cc1ccc2c(ccc(=O)n2CCCN2CCC(c3c[nH]c4ccccc34)CC2)c1 [VII-2, 1-[3-[4-(1H-indol-3-yl)-1-piperidinyl]propyl]-6-methyl-2(1H)-quinolinone]
inhibition in vivo at 10 mg/kg [1, 4]: 24.3%
inhibition in vivo at 10 mg/kg ([2]; 10 mg/kg): 41.9%

O=c1ccc2ccccc2n1CCCN1CCC(c2c[nH]c3ccccc23)CC1 [VII-3, 1-[3-[4-(1H-indol-3-yl)-1-piperidinyl]propyl]-2(1H)-quinolinone]
inhibition in vivo at 10 mg/kg [1, 4]: 76.7%
inhibition in vivo at 10 mg/kg ([2]; 10 mg/kg): 27.2%

Cc1cc(=O)n(CCCN2CCC(c3c[nH]c4ccccc34)CC2)c2ccccc12 [VII-4, 1-[3-[4-(1H-indol-3-yl)-1-piperidinyl]propyl]-4-methyl-2-(1H)-quinolinone]
inhibition in vivo at 10 mg/kg [1, 4]: 10.8%
inhibition in vivo at 10 mg/kg ([2]; 10 mg/kg): 89.2%

Source: patent publication US5457099A, “Carbostyril derivatives and antiallergic agent” (Sawai Pharmaceutical Co., Ltd., priority 1992, dated 1995)
